Here are results for 4 molecules from ChEMBL document CHEMBL2331175, “On dihydroorotate dehydrogenases and their inhibitors and uses” (J Med Chem, 2013).

Data set [1] deals with Voltage-gated inwardly rectifying potassium channel KCNH2 (Homo sapiens, UniProt Q12809). Nature of the data set: Inhibition of human ERG channel overexpressed in Chinese hamster CHOK1 cells by whole cell voltage clamp assay. In kind it is cell-based, CHO-K1.
The nature of data set [2]: Half life in human. The class given is ADME, organism-based. As to conditions: in vivo.
In data set [3] the target is Dihydroorotate dehydrogenase (quinone), mitochondrial (Rattus norvegicus, UniProt Q63707). Description: Inhibition of rat purified recombinant DHODH.
For data set [4], the target named is T1, Dihydroorotate dehydrogenase (quinone), mitochondrial (Homo sapiens, UniProt Q02127). Nature of the data set: Inhibition of human purified recombinant DHODH.
Data set [5] deals with T2, Dihydroorotate dehydrogenase (Plasmodium falciparum, UniProt Q54A96).
T2 sequence (Q54A96 whole entry): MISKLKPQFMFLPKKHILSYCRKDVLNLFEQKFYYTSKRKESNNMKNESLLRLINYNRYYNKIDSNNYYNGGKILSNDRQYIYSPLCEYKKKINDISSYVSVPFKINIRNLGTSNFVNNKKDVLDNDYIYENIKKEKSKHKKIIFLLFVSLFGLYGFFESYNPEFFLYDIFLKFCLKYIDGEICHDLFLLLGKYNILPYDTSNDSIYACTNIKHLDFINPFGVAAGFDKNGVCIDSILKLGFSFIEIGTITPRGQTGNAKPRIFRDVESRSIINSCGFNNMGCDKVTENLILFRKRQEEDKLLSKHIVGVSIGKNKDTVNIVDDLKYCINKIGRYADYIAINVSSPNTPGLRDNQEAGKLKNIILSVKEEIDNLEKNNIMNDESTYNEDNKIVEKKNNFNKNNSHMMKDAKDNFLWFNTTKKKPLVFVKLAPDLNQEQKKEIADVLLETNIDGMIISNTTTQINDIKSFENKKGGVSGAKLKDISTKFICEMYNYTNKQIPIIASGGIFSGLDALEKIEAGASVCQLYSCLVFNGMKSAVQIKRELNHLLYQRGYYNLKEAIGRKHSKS
Description: Inhibition of plasmodium falciparum DHODH assessed as inhibition of [14C]bicarbonate incorporation into pyrimidine nucleotide by HPLC analysis.

Data set [6] deals with T1, Dihydroorotate dehydrogenase (quinone), mitochondrial. Nature of the data set: Competitive inhibition of human purified recombinant DHODH in presence of cofactor ubiquinone.
Data set [7] has as its target Dihydroorotate dehydrogenase (quinone), mitochondrial (Rattus norvegicus) (UniProt Q63707). Nature of the data set: Competitive inhibition of rat purified recombinant DHODH in presence of cofactor ubiquinone.

T1 sequence (Q02127 whole entry): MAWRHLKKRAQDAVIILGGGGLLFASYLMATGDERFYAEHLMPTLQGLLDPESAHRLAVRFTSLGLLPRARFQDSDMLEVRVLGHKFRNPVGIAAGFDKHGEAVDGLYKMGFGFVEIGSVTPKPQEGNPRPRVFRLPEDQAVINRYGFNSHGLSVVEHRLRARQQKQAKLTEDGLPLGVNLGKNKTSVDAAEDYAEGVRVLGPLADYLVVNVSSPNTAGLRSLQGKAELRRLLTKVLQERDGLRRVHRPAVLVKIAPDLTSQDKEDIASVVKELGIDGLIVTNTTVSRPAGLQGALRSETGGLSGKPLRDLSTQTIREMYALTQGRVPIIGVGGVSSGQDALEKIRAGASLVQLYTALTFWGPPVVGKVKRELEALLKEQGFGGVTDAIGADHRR
Sequence of Dihydroorotate dehydrogenase (quinone), mitochondrial (Rattus norvegicus) (Q63707 whole entry): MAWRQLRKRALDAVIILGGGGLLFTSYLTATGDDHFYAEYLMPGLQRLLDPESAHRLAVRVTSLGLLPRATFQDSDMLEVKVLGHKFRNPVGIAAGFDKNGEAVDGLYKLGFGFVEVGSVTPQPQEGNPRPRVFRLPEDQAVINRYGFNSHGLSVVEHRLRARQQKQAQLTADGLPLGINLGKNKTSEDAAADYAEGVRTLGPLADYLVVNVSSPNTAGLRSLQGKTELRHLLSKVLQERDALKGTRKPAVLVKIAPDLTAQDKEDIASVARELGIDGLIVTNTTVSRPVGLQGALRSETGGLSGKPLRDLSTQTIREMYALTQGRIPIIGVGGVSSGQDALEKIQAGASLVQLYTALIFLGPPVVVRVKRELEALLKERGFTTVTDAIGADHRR
Sequence of Dihydroorotate dehydrogenase (quinone), mitochondrial (Rattus norvegicus, UniProt Q63707) (Q63707 whole entry): as above
Sequence of Voltage-gated inwardly rectifying potassium channel KCNH2 (Q12809 whole entry): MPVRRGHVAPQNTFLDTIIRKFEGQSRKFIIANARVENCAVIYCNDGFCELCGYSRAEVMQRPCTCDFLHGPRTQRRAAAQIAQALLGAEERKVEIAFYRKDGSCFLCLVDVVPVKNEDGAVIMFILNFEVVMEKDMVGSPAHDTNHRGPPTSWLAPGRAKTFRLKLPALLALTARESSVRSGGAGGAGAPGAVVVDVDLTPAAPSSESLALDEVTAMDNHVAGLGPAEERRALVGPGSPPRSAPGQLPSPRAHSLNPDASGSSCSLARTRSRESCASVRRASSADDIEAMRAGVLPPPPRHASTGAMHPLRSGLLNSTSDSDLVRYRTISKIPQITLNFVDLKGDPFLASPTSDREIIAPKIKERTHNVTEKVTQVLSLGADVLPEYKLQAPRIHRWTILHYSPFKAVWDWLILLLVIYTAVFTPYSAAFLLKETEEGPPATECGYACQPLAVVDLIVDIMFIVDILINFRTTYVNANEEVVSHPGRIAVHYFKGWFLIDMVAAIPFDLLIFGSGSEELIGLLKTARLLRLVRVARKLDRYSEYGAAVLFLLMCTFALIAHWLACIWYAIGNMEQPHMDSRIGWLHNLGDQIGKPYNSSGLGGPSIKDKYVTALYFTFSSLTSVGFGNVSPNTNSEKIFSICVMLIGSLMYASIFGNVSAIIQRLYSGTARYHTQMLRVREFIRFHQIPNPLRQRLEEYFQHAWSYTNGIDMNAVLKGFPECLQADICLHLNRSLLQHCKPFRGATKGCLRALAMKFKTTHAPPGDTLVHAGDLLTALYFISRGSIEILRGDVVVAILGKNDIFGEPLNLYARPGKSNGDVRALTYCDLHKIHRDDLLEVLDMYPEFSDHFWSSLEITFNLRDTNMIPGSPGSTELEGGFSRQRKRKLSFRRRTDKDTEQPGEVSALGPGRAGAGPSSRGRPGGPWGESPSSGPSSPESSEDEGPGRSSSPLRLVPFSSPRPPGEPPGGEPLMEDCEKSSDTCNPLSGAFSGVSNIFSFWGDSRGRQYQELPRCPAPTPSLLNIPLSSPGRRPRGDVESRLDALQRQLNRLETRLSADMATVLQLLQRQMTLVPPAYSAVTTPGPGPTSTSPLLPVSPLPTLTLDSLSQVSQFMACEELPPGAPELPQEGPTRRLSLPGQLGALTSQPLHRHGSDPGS

For `Cc1nc2cc(OC(F)(F)F)ccc2n1-c1ccc(C(=O)NC2CC2)s1`, the IC50 (as a rule, the concentration needed to halve the response being measured) in data set [1] is less than 2.8 µM.
As to `Cc1cc(NC(=O)/C(C#N)=C(\O)C2CC2)ccc1C(F)(F)F`, in data set [2], the half-life (commonly the time in which the quantity being followed falls by half) is 3.5 h.
For the molecule `O=C1C(O)=C([C@H]2CC[C@H](c3ccc(Cl)cc3)CC2)C(=O)c2ccccc21` [ATOVAQUONE], the concentration for half-maximal inhibition (IC50) in data set [3] is 0.7 µM; in data set [4], 14.5 µM. The Ki (commonly the equilibrium dissociation constant of an inhibitor or competing ligand from its target) in data set [5] worked out at 27 µM. The values for the Kic in data set [6] and in data set [7] were 2.7 µM and 60 nM, respectively.
In data set [2], `C/C(O)=C(\C#N)C(=O)Nc1ccc(C(F)(F)F)cc1` [TERIFLUNOMIDE] registered a half-life of more than 336 h.
